Results as given in ChEMBL document CHEMBL3817791, “Discovery of 4-(4-aminopyrazolo[1,5-a][1,3,5]triazin-8-yl)benzamides as novel, highly potent and selective, orally bioavailable inhibitors of Tyrosine Threonine Kinase, TTK” (Bioorg Med Chem Lett, 2016).

Experiments:
[1] = Antiproliferative activity against human HCT116 cells; assay type: functional; conditions: HCT-116
[2] = Half life in mouse microsomes; assay type: ADME, Microsome
[3] = Protein binding in mouse plasma; assay type: ADME, cell-free; conditions: read-out: PPB (converted)
[4] = AUC (0 to last) in CD-1 nude mouse at 100 mg/ml, po; assay type: ADME, organism-based; set-up: dose 100 mg/ml, route oral, time 0 - last; conditions: in vivo
[5] = Cmax in CD-1 nude mouse at 25 mg/ml, po; assay type: ADME, organism-based; set-up: dose 25 mg/ml, route oral; conditions: in vivo
[6] = AUC (0 to last) in CD-1 nude mouse at 70 mg/ml, po; assay type: ADME, organism-based; set-up: dose 70 mg/ml, time 0 - last, route oral; conditions: in vivo
[7] = Clearance in Sprague-Dawley rat at 1 mg/ml, iv; assay type: ADME, organism-based; conditions: in vivo
Aurora kinase A = molecular target: T1, Aurora kinase A (Homo sapiens, UniProt O14965); assay: Inhibition of full length recombinant human N-terminal His6-tagged Aurora A expressed in Sf21 cells by radiometric assay
T1 sequence (O14965 whole entry): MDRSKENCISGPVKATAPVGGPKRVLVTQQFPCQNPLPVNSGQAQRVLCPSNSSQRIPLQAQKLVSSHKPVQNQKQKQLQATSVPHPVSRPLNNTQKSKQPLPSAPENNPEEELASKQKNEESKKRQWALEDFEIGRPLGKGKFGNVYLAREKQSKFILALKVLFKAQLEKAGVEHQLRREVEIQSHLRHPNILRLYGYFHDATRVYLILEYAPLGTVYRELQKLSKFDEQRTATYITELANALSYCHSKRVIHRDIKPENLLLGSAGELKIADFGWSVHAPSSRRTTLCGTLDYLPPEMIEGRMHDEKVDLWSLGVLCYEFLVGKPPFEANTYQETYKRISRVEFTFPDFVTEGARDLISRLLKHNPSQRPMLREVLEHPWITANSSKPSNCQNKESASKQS

[8] = molecular target: Aurora kinase B/Inner centromere protein (Homo sapiens, UniProt Q96GD4); assay: Inhibition of recombinant human His-tagged Aurora B/full length recombinant human N-terminal GST-tagged INCENP (821-end residues) expressed in baculovirus infected Sf21 cells by radiometric assay
Sequence of Aurora kinase B/Inner centromere protein (Q96GD4 whole entry): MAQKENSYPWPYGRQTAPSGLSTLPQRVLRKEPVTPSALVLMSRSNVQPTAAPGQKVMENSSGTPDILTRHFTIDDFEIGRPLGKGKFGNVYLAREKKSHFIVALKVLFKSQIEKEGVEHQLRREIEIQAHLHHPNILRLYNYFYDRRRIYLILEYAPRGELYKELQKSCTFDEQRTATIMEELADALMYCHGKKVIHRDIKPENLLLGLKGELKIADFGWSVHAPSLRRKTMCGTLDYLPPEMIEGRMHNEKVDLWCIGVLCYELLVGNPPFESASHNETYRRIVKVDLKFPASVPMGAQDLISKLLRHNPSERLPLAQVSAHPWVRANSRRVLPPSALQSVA
Sequence of Aurora kinase B/Inner centromere protein (Q9NQS7 whole entry, further chain): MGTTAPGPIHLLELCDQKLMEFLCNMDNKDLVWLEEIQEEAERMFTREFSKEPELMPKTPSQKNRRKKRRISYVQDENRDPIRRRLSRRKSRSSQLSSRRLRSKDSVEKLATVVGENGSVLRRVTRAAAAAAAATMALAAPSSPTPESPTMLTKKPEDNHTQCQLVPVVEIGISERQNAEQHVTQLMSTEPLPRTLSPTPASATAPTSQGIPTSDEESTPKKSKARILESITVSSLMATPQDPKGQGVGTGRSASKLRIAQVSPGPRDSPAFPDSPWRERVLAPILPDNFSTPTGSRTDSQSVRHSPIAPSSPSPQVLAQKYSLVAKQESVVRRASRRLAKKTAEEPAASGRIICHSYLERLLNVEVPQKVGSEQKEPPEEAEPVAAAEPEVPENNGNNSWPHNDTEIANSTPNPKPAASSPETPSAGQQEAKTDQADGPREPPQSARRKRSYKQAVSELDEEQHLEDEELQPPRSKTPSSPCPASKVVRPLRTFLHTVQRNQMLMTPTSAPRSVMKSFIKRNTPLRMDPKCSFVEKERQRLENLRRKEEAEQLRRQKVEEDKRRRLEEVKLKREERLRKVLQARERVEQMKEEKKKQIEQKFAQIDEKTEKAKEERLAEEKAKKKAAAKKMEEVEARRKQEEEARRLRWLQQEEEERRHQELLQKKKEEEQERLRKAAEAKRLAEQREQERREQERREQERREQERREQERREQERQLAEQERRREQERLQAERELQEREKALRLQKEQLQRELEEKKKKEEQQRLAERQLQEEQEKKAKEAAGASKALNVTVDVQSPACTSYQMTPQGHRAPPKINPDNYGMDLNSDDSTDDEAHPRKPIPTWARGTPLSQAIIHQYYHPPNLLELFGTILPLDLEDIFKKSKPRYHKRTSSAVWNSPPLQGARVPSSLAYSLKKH

- half-life [2]: 46 min
- fraction unbound [3]: 0.016
- AUC(0-t) [4]: 25000 ng·h/mL
- Cmax [5]: 3200 ng/mL
- AUC(0-t) [6]: 53000 ng·h/mL
- clearance [7]: 19 mL/min/kg
- IC50 (Aurora kinase A): > 50 µM
- IC50 [8]: > 50 µM
Structure (SMILES): Cc1cc(-c2cnn3c(NCC4CCOCC4)nc(Oc4ccccc4)nc23)ccc1C(=O)NC1CC1
- GI50 [1]: 0.013 µM
